Experimental data from article PMC10924921, “Mi-2β promotes immune evasion in melanoma by activating EZH2 methylation” (Nature Communications, 2024).

Experiments:
Assay in all cases: biochemical
Parameters in all cases: KINOMEscan active-site competition binding panel (468 kinase assays), per cent of control at 1000 nM
Settings in all cases: KINOMEscan per cent of control (binding competition); read-out: Percent Control
[1] = target: T1, ABL1(Y253F)-phosphorylated (Homo sapiens, UniProt P00519, Y253F)
T1 construct: phosphorylated
Text: (§1) Figure S7 / Percent Control

CSNK2A1 = CSNK2A1 (Homo sapiens, UniProt P68400)
Text: as §1

SRPK3 = SRPK3 (Homo sapiens, UniProt Q9UPE1)
Text: as §1

AAK1 = AAK1 (Homo sapiens, UniProt Q2M2I8)
Text: as §1

FES = FES (Homo sapiens, UniProt P07332)
FES, sequence (P07332 whole entry): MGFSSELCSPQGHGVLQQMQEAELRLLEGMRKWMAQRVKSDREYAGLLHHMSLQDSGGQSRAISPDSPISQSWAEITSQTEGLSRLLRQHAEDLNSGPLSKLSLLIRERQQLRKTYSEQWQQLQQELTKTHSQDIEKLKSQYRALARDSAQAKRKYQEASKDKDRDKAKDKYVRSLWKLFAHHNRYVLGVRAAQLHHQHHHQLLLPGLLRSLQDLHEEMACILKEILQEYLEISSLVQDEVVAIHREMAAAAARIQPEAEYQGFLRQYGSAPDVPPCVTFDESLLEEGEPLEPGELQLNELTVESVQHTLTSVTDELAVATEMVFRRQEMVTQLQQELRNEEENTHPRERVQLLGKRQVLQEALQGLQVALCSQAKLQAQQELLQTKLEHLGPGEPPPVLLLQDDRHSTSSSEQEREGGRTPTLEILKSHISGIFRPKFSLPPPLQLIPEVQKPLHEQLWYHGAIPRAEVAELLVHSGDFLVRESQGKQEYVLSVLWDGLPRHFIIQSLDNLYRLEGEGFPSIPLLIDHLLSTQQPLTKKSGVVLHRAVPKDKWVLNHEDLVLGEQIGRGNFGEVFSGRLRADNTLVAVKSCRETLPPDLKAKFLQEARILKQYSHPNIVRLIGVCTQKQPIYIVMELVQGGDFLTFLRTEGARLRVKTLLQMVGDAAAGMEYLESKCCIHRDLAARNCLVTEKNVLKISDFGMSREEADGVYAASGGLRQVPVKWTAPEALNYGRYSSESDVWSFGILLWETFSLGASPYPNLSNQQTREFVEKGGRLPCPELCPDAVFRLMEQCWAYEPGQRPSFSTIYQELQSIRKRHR
Text: as §1

MAP3K2 = MAP3K2 (Homo sapiens, UniProt Q9Y2U5)
Text: as §1

AXL = AXL (Homo sapiens, UniProt P30530)
AXL, sequence (P30530 whole entry): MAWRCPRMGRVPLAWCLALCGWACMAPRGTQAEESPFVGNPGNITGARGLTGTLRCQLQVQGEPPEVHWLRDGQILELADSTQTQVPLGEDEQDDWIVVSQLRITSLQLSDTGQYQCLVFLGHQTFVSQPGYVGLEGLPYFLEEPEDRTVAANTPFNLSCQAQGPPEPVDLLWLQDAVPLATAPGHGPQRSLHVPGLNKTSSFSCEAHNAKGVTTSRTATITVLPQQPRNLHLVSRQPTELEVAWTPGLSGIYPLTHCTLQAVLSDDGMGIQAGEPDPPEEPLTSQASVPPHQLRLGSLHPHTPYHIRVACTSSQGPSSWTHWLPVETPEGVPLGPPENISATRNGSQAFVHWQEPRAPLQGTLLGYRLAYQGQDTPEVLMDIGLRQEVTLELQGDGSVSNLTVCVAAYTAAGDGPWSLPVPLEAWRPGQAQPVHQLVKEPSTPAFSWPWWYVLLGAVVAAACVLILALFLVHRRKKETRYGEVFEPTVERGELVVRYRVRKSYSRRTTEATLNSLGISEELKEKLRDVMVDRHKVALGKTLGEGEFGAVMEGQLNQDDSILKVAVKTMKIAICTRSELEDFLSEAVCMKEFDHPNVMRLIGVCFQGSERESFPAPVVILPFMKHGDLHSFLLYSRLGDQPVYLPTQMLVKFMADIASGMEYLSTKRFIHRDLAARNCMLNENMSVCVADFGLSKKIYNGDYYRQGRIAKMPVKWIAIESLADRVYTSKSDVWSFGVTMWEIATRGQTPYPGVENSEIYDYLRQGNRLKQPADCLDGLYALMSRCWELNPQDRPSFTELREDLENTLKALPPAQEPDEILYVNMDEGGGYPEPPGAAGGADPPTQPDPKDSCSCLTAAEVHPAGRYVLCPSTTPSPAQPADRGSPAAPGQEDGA
Text: as §1

TSSK1B = TSSK1B (Homo sapiens, UniProt Q9BXA7)
Text: as §1

[2] = target: T2, RSK1(Kin.Dom.2-C-terminal) (Homo sapiens, UniProt Q15418)
T2 construct: gene RPS6KA1; Kin.Dom.2-C-terminal
T2 sequence (Q15418 whole entry): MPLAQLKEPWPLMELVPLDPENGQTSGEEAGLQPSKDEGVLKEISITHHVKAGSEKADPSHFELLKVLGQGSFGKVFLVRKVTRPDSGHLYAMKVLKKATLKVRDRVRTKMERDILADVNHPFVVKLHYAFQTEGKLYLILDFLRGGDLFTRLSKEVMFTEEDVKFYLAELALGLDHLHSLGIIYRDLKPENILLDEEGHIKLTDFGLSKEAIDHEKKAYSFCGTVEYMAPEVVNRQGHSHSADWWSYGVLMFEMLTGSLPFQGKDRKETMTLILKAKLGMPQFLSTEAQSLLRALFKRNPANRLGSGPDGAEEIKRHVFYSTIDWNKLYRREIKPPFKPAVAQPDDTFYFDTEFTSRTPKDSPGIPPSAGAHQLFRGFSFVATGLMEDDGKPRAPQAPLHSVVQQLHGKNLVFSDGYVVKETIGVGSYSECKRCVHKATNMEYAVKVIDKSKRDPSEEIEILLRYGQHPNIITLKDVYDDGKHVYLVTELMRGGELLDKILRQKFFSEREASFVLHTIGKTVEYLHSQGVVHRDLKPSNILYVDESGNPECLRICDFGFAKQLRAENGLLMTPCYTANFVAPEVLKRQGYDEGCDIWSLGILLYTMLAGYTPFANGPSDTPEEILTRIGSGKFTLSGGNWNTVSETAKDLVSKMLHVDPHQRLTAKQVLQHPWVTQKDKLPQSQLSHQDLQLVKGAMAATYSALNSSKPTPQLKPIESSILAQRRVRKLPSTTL
Text: as §1

ACVR1 = ACVR1 (Homo sapiens, UniProt Q04771)
Text: as §1

DYRK1B = DYRK1B (Homo sapiens, UniProt Q9Y463)
Text: as §1

CLK1 = CLK1 (Homo sapiens, UniProt P49759)
Text: as §1

DCAMKL3 = target: T3, DCAMKL3 (Homo sapiens, UniProt Q9C098)
T3 construct: gene DCLK3
Text: as §1

[3] = target: T4, ABL1(F317I)-phosphorylated (Homo sapiens, UniProt P00519, F317I)
T4 construct: phosphorylated
Text: as §1

EPHB6 = EPHB6 (Homo sapiens, UniProt O15197)
Text: as §1

PIK3CA(I800L) = PIK3CA(I800L) (Homo sapiens, UniProt P42336, I800L)
PIK3CA(I800L), sequence (P42336 whole entry I800L): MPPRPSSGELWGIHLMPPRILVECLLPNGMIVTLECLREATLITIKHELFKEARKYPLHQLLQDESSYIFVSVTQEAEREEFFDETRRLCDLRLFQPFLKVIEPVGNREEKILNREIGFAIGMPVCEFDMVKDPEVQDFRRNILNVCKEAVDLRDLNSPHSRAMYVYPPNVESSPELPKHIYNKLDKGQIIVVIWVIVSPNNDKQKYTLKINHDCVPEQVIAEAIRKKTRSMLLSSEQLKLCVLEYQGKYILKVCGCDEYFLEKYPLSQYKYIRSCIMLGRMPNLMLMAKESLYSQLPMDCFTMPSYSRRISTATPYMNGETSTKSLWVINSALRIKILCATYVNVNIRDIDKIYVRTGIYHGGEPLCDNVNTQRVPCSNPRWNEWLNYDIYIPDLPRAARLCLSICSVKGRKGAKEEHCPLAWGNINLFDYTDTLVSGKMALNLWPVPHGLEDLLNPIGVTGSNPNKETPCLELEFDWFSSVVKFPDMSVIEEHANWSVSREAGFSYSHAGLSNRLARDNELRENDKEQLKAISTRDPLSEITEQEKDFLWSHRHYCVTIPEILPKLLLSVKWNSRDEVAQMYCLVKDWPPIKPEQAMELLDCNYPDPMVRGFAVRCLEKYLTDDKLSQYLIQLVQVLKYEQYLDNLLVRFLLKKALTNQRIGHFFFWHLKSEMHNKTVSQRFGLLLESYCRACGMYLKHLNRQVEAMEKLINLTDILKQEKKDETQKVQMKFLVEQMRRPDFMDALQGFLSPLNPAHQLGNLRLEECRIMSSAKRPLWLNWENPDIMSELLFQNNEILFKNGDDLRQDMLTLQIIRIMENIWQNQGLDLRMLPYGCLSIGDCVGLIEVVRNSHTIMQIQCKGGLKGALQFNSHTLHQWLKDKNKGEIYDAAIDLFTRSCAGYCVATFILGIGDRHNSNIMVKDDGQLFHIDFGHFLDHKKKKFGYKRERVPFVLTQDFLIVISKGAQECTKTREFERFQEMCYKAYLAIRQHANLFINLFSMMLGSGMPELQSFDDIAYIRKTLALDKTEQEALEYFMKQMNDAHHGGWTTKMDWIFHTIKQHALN
Text: as §1

PIK3CA(E545K) = PIK3CA(E545K) (Homo sapiens, UniProt P42336, E545K)
PIK3CA(E545K), sequence (P42336 whole entry E545K): as the sequence (P42336 whole entry I800L) above, with E545K, L800I counted along it
Text: as §1

ACVRL1 = ACVRL1 (Homo sapiens, UniProt P37023)
ACVRL1, sequence (P37023 whole entry): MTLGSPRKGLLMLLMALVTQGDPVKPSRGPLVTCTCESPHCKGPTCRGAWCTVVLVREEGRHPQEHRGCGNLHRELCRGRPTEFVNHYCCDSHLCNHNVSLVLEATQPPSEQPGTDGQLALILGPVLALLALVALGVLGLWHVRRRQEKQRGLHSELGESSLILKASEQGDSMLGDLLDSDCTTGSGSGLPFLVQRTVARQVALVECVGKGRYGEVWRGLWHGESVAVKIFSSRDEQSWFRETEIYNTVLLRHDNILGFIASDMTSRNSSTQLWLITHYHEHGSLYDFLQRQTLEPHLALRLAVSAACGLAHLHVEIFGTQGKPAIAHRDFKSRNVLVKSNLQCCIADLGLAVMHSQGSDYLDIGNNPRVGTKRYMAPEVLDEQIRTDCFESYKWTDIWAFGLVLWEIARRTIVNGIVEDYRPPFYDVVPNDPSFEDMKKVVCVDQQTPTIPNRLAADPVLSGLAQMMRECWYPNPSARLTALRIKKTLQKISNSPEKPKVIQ
Text: as §1

MRCKA = target: T5, MRCKA (Homo sapiens, UniProt Q5VT25)
T5 construct: gene CDC42BPA
Text: as §1

FAK = target: T6, FAK (Homo sapiens, UniProt Q05397)
T6 construct: gene PTK2
Text: as §1

MTOR = MTOR (Homo sapiens, UniProt P42345)
Text: as §1

MERTK = MERTK (Homo sapiens, UniProt Q12866)
MERTK, sequence (Q12866 whole entry): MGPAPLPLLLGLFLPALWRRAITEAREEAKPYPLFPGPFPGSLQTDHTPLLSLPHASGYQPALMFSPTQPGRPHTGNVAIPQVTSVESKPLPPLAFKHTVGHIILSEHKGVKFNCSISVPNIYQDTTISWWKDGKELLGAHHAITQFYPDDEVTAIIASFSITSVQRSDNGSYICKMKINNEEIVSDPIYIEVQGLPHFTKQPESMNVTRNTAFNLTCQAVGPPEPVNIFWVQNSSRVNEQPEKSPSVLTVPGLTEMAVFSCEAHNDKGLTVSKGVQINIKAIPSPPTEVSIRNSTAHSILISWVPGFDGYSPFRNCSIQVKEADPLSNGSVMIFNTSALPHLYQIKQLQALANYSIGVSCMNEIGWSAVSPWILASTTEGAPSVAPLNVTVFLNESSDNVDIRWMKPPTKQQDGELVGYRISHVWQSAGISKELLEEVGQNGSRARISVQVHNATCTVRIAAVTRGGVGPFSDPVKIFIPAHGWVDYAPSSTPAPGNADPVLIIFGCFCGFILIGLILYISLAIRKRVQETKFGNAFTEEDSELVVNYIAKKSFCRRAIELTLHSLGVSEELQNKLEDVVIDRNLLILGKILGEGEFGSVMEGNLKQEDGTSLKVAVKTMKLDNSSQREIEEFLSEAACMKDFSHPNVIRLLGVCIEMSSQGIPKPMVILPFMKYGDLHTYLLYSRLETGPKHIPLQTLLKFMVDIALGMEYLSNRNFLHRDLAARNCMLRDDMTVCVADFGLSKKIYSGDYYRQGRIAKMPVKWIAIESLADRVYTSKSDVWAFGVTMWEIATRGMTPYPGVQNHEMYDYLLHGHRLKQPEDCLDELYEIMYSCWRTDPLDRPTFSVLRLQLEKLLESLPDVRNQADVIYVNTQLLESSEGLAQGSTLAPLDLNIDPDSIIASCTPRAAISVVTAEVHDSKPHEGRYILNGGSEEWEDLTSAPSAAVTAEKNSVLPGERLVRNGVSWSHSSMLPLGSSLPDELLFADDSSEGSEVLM
Text: as §1

FGFR3(G697C) = FGFR3(G697C) (Homo sapiens, UniProt P22607, G697C)
Text: as §1

WEE1 = WEE1 (Homo sapiens, UniProt P30291)
Text: as §1

Q: With `Cn1c(=O)[nH]c2ccc(-c3cccc(C(=O)NC4CCn5ccnc5C4)c3)cc21` (stereo not drawn) [Z36-MP5] as the compound, how does the remaining binding at 1 µM [1] read?
A: 72%

Q: And the remaining binding at 1 µM (CSNK2A1)?
A: 61%

Q: And the remaining binding at 1 µM (SRPK3)?
A: 51%

Q: What about the remaining binding at 1 µM (AAK1) of the same compound?
A: 91%

Q: What about the remaining binding at 1 µM (FES) of the same compound?
A: 73%

Q: And the remaining binding at 1 µM (MAP3K2)?
A: 65%

Q: What about the remaining binding at 1 µM (AXL) of the same compound?
A: 94%

Q: And the remaining binding at 1 µM (TSSK1B)?
A: 92%

Q: What about the remaining binding at 1 µM [2] of the same compound?
A: 98%

Q: What about the remaining binding at 1 µM (ACVR1) of the same compound?
A: 47%

Q: And the remaining binding at 1 µM (DYRK1B)?
A: 86%

Q: What about the remaining binding at 1 µM (CLK1) of the same compound?
A: 96%

Q: What about the remaining binding at 1 µM (DCAMKL3) of the same compound?
A: 92%

Q: What about the remaining binding at 1 µM [3] of the same compound?
A: 90%

Q: And the remaining binding at 1 µM (EPHB6)?
A: 81%

Q: And the remaining binding at 1 µM (PIK3CA(I800L))?
A: 94%

Q: What about the remaining binding at 1 µM (PIK3CA(E545K)) of the same compound?
A: 48%

Q: What about the remaining binding at 1 µM (ACVRL1) of the same compound?
A: 92%

Q: And the remaining binding at 1 µM (MRCKA)?
A: 100%

Q: What about the remaining binding at 1 µM (FAK) of the same compound?
A: 88%

Q: What about the remaining binding at 1 µM (MTOR) of the same compound?
A: 87%

Q: And the remaining binding at 1 µM (MERTK)?
A: 70%

Q: What about the remaining binding at 1 µM (FGFR3(G697C)) of the same compound?
A: 49%

Q: And the remaining binding at 1 µM (WEE1)?
A: 100%
